Here are results for two compounds from US20030096379A1, “Method for producing tryptamine derivatives” (priority 2001, published 2003).

For experiment [1], the target named is T1, pkAAAD (Sus scrofa, UniProt P80041).
T1 construct: Frozen tissue was partially thawed in lysis buffer, then it was extracted and partially purified; from tissue; host or cells: pig kidney
T1 sequence (P80041 1-486): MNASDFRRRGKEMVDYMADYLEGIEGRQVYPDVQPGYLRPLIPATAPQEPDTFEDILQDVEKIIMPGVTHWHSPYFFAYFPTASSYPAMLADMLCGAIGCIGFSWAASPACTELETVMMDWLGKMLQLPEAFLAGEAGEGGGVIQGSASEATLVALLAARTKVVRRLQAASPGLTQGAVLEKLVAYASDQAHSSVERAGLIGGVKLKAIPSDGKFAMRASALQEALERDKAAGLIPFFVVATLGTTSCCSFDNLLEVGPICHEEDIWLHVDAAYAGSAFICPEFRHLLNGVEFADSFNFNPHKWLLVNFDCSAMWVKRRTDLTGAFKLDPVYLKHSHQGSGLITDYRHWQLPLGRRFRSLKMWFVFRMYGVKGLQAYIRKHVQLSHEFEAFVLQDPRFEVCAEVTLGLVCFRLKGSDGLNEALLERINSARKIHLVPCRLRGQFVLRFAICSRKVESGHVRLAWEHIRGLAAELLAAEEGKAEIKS
The experiment is described as follows: pkAAAD-catalyzed decarboxylation rate ratio by HPLC. To be noted: HPLC of acid-quenched aliquots, ratio to 1. Type of experiment: biochemical, pig. As for the experimental part: Tryptophan synthase activity was assayed by monitoring the increase in absorbance at 290 nm of a mixture containing serine, indole and PLP (Higgins, W., et al., Biochemistry, 1979, 18, 4827). TnA-catalyzed tryptophan synthesis was also measured by the 290 nm assay, while the tryptophan lyase reaction rate was measured by monitoring the reduction in NADH in reaction mixtures containing L-tryptophan and lactate dehydrogenase, indicating the amount of pyruvate released. Tryptophan decarboxylase was assayed colorimetrically by monitoring the sabsorbance at 580 nm produced by serotonin (AAADs) or tryptamine (TDCs) following treatment of reaction aliquots with Ehrlich's reagent (4-N,N-(dimethyl)aminobenzaldehyde in ethanolic HCl; Nakazawa, H.; Kumagi, H.; Yamada, H. Biochem Biophys. Res. Commun., 1974, 61, 75-82). Serotonin could be detected with approximately 5-fold higher sensitivity by this method as compared with tryptamine. The Ehrlich reagent assay using a microtiter plate format for simultaneous analysis of multiple enzyme samples may also be used. HPLC analysis was performed on acid-quenched reaction aliquots by using a base-deactivated C8 reversed-phase support (Shandon Hypersil BD8). […]

Experiment [2] addresses T1, pkAAAD. To be noted: literature (Sourkes 1987), ratio :1; cited from earlier work.
Experiment [3] deals with T2, tryptophan decarboxylase TDC2 (Camptotheca acuminata, UniProt P93083).
T2 construct: made in house; host or cells: E. coli DH5α (pKK233 plasmid from C. Nessler)
T2 sequence (P93083 1-498): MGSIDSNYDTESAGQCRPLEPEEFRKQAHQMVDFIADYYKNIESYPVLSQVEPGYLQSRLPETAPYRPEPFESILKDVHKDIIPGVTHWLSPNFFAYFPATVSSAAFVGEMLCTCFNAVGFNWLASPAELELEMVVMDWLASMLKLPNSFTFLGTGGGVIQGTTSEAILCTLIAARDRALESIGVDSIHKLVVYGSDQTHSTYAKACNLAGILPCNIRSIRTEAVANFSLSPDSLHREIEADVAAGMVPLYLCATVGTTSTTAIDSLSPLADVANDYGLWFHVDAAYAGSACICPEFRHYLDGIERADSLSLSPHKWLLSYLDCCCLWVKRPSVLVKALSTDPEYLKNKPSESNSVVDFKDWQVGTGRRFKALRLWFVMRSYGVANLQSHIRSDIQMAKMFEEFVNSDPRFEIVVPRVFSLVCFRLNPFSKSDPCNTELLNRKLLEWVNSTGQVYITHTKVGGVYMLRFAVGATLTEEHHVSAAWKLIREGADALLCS
As to the kind of experiment: Substrate screen for tryptophan decarboxylation, TDC2. It counts as biochemical, C. accuminata. The arrangement: key: +: a clear ninhydrin-positive spot at the Rf of standard tryptophan derivatives after 16-65 h; (+): a weak spot in the product region; −: no product observed; NR: experiment not run. To be noted: tryptophan derivative, PLP, pH 7.5, 37° C. The procedure: (§1) A mixture containing 1 μmole of the tryptophan derivative, 0.05 μmole of PLP and 50 μmol of L-serine in 40 mM pH 7.5 KPi buffer was warmed to 37° C., then enzyme solution was added to give a final volume of 1 mL. Aliquots (100 HL) were quenched at intervals and were evaporated in a Savant Speed-vac as in Example 6. For TLC analysis, CH2Cl2/EtOH/H2O/HOAc 49:49:1:1 was used as the solvent. The plates were visualized with short-wave UV light and ninhydrin as in Example 6.
(§2) HPLC techniques were used to monitor the decarboxylation of substituted tryptophans. Mass spectral analysis of the collected HPLC peaks was used to confirm the identity of several tryptamine derivatives, as shown in Table 5.

Experiment [4] deals with T3, tryptophan decarboxylase TDC1 (Camptotheca acuminata, UniProt P93082).
T3 construct: made in house; host or cells: E. coli DH5α (pKK233 plasmid from C. Nessler)
T3 sequence (P93082 1-502): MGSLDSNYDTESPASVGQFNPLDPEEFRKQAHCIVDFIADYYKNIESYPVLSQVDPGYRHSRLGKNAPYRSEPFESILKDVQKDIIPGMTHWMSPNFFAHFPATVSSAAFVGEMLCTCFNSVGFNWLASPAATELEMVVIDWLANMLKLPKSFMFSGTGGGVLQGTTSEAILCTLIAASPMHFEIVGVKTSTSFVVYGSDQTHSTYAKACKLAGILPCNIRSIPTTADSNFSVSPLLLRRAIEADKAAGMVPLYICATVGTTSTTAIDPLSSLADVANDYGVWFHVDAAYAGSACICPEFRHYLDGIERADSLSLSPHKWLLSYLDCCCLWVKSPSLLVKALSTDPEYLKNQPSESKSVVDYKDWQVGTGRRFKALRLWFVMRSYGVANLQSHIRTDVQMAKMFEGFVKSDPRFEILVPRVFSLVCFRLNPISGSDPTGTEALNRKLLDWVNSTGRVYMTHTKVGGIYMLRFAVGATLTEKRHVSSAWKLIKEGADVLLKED
As to the kind of experiment: Substrate screen for tryptophan decarboxylation, TDC1. To be noted: tryptophan derivative, PLP, pH 7.5, 37° C. Type of experiment: biochemical, C. accuminata. On the set-up: key: +: a clear ninhydrin-positive spot at the Rf of standard tryptophan derivatives after 16-65 h; (+): a weak spot in the product region; −: no product observed; NR: experiment not run. The procedure: as §1, §2

In experiment [5] the target is T4, pig kidney aromatic amino acid decarboxylase (pkAAAD) (Sus scrofa, UniProt P80041).
T4 construct: Frozen tissue was partially thawed in lysis buffer, then it was extracted and partially purified; from tissue; host or cells: pig kidney
T4 sequence (P80041 1-486): T1 sequence (P80041 1-486)
The experiment is described as follows: Substrate screen for tryptophan decarboxylation, pkAAAD. The arrangement: key: +: a clear ninhydrin-positive spot at the Rf of standard tryptophan derivatives after 16-65 h; (+): a weak spot in the product region; −: no product observed; NR: experiment not run. It counts as biochemical. To be noted: tryptophan derivative, PLP, pH 7.5, 37° C.

The target in another experiment is T5, TDC2 (Camptotheca acuminata, UniProt P93083).
T5 construct: made in house; host or cells: E. coli DH5α (pKK233 plasmid from C. Nessler)
T5 sequence (P93083 1-498): T2 sequence (P93083 1-498)
The experiment is described as follows: Relative decarboxylation rates by Ehrlich's reagent, TDC2. Type of experiment: biochemical, C. accuminata. As for the experimental part:
(§3) […] Reaction aliquots were quenched in microcentrifuge capsules containing 50 μL each of 6M HCl to quench the enzyme reaction at 2, 5, and 20 min. Quenched aliquots were heated at 50° C. for 40 min with 750 μL each of Ehrlich's reagent (2:24:74 w/v/v 4-(diethyl)aminobenzaldehyde: conc HCl: ethanol). Absorbance was read at 580-nm and compared with standards of serotonin (10-250 μM) or tryptamine (50 to 2000 μM).
(§4) Relative rates for decarboxylation of L-5-hydroxytryptophan (L-5-HOtrp) and L-tryptophan were determined for TDC1 and TDC2 by use of Ehrlich's reagent, discussed in Example 10.

The next experiment concerns the target T6, TDC1 (Camptotheca acuminata, UniProt P93082).
T6 construct: made in house; host or cells: E. coli DH5α (pKK233 plasmid from C. Nessler)
T6 sequence (P93082 1-502): T3 sequence (P93082 1-502)
The experiment is described as follows: Relative decarboxylation rates by Ehrlich's reagent, TDC1. It counts as biochemical, C. accuminata. As for the experimental part:
as §3, §4

Consider `N[C@@H](Cc1ccc(O)c(O)c1)C(=O)O` [DOPA], for which the “rate ratio of DOPA decarboxylation relative to that of L-5-hydroxytryptophan” value at pkAAAD [1] was 4.5. In addition, the “accepted ratio of DOPA to L-5-hydroxytryptophan decarboxylation” value on pkAAAD [2] is given as “approximately 5”.

`N[C@@H](Cc1c[nH]c2ccccc12)C(=O)O` [L-tryptophan]: in experiment [3], the “TDC2 (decarboxylation substrate screen)” value is on record as “+”. Also, the “TDC1 (decarboxylation substrate screen)” value in experiment [4] is on record as “+”. For the same compound, in experiment [5], the “pkAAAD (decarboxylation substrate screen)” value is on record as “(+)”. The “ratio trp/5HOtrp TDC2 (relative decarboxylation rate)” value was 64.1 on TDC2 (pH 7.5), 38.3 at TDC2 (pH 8.5) and 53.6 on TDC2 (pH 9.5). In addition, the “ratio trp/5HOtrp TDC1 (relative decarboxylation rate)” value at TDC1 (pH 7.5) came to 15.1; on TDC1 (pH 8.5), 10.5; at TDC1 (pH 9.5) it was 10.3.
